Measurements as given in patent US5610320A, “Sulfonamide phenyl substituted compounds” (Eisai Co., Ltd., priority 1990, dated 1997).
Values after ≈ are worked out from the molar mass of the structure shown.

test system: KB cells (human nasopharyngeal cells); assay: In vitro antineoplastic test on KB cells (MTT, 3 days); format: cell-based; settings: 72 h, KB cells in vitro, 37° C. for three days, MTT, read-out: IC50
Protocol: In vitro antineoplastic test on KB cells (human nasopharyngeal cells):
1.25×10^3 (0.1 ml) of KB cells suspended in a RPMI 1640 medium (a product of Nissui Seiyaku Co., Ltd.) containing 20% of bovine fetus serum, penicillin (100 units/ml), streptomycin (100 μg/ml), mercaptoethanol (5×10^-5 M) and sodium pyruvate (1 mM) were placed in each hole of a 96-hole flat-bottom microplate and cultured in an incubator containing 5% of carbon dioxide at 37° C. for one day.
This concentration was the maximum one, which was subjected to two-fold serial dilution with 0.1% bovine fetus serum RPMI 1640 culture liquid containing 0.5% of dimethyl sulfoxide. It was added to the KB cells in each hole of the above-described culture plate in an amount of 0.1 ml and cultured in an incubator containing 5% of carbon dioxide at 37° C. for three days.
After the completion of the culture, 0.05 ml of MTT [3-(4,5-dimethylthiazol-2-yl)-2,5-diphenyltetrazolium bromide] solution (3.3 mg/ml) was added to each hole and the culture was conducted for an additional 1 h. The supernatant liquid was removed from each hole by suction and a formazan thus formed was dissolved in 0.1 ml of dimethyl sulfoxide. The absorbance at 540 nm was determined with a microplate reader to use as an index of a viable count. A percentage inhibition was calculated according to the following formula and the concentration of the test compound for 50% inhibition (IC50) was determined.
Percentage inhibition (%)=(C-T)/C×100
T: absorbance of the hole containing the test compound
C: absorbance of the hole containing no test compound

Q: Which IC50 does the source give for `COCOc1ccc(Nc2ncccc2NS(=O)(=O)c2ccc(OC)cc2)cc1` [Example 5, 4-Methoxy-N-[2-[(4-methoxymethyloxyphenyl)amino]-3-pyridyl-]benzenesulfonamide] here?
A: 0.73 µg/mL (≈ 1.76 µM)

Q: For `COc1ccc(S(=O)(=O)Nc2cccnc2Nc2ccc(C)cc2)cc1` [Example 8, 4-Methoxy-N-[2-[(4-methylphenyl)amino]-3-pyridyl]benzenesulfonamide], which IC50 is on record?
A: 0.89 µg/mL (≈ 2.41 µM)

Q: `COc1ccc(S(=O)(=O)Nc2cccnc2Nc2ccccc2F)cc1` [Example 9, N-[2-[(2-Fluorophenyl)amino]-3-pyridyl]-4-methoxybenzenesulfonamide] was tested. Which IC50 did it give?
A: 0.34 µg/mL (≈ 0.911 µM)

Q: How did the IC50 turn out when `COc1ccc(S(=O)(=O)Nc2cccnc2Nc2cccc(F)c2)cc1` [Example 10, N-[2-[(3-Fluorophenyl)amino]-3-pyridyl]-4-methoxybenzenesulfonamide] was run?
A: 0.21 µg/mL (≈ 0.562 µM)

Q: For `COc1ccc(S(=O)(=O)Nc2cccnc2Nc2ccc(F)cc2)cc1` [Example 11, N-[2-[(4-Fluorophenyl)amino]-3-pyridyl]-4-methoxybenzenesulfonamide], which IC50 is on record?
A: 0.33 µg/mL (≈ 0.884 µM)

Q: How did the IC50 turn out when `COc1ccc(S(=O)(=O)Nc2cccnc2Nc2cccc(OC)c2)cc1` [Example 13, 4-Methoxy-N-[2-[(3-methoxyphenyl)amino]-3-pyridyl]benzenesulfonamide] was run?
A: 2.6 µg/mL (≈ 6.75 µM)

Q: Which IC50 does the source give for `COc1ccc(S(=O)(=O)Nc2cccnc2Nc2ccccc2OC)cc1` [Example 16, 4-Methoxy-N-[2-[(2-methoxyphenyl)amino]-3-pyridyl]benzenesulfonamide] here?
A: 1.5 µg/mL (≈ 3.89 µM)

Q: How did the IC50 turn out when `COc1ccc(S(=O)(=O)Nc2cccnc2Nc2cccc(C)c2)cc1` [Example 17, 4-Methoxy-N-[2-[(3-methylphenyl)amino]-3-pyridyl]benzenesulfonamide] was run?
A: 0.94 µg/mL (≈ 2.54 µM)

Q: With `COc1ccc(S(=O)(=O)Nc2cccnc2Nc2ccccc2C)cc1` [Example 18, 4-Methoxy-N-[2-[2(2-methylphenyl)amino]-3-pyridyl]benzenesulfonamide] as the compound, how does the IC50 read?
A: 0.73 µg/mL (≈ 1.98 µM)

Q: `Nc1ccc(S(=O)(=O)Nc2cccnc2Nc2ccccc2)cc1` [Example 21, 4-Amino-N-(2-anilino-3-pyridyl)benzenesulfonamide] was tested. Which IC50 did it give?
A: 1.1 µg/mL (≈ 3.23 µM)

Q: For `CCOc1ccc(S(=O)(=O)Nc2cccnc2Nc2ccccc2)cc1` [Example 27, N-(2-Anilino-3-pyridyl)-4-ethoxybenzenesulfonamide], which IC50 is on record?
A: 1.4 µg/mL (≈ 3.79 µM)

Q: `COc1ccc(S(=O)(=O)Nc2cccnc2Nc2cccc(O)c2)cc1` [Example 34, N-[2-[(3-Hydroxyphenyl)amino]-3-pyridyl]-4-methoxybenzenesulfonamide] was tested. Which IC50 did it give?
A: 0.11 µg/mL (≈ 0.296 µM)

Q: For `CCOc1ccc(Nc2ncccc2NS(=O)(=O)c2ccc(OC)cc2)cc1` [Example 35, N-[2-[(4-Ethoxyphenyl)amino]-3-pyridyl]-4-methoxybenzenesulfonamide], which IC50 is on record?
A: 0.45 µg/mL (≈ 1.13 µM)

Q: For `COc1ccc(S(=O)(=O)Nc2cccnc2Nc2ccc(O)c(C)c2)cc1` [Example 36, N-[2-[(4-hydroxy-3-methylphenyl)amino]-3-pyridyl]-4-methoxybenzenesulfonamide], which IC50 is on record?
A: 0.72 µg/mL (≈ 1.87 µM)

Q: How did the IC50 turn out when `CCOC(=O)c1ccc(Nc2ncccc2NS(=O)(=O)c2ccc(OC)cc2)cc1` [Example 37, Ethyl 4-[[3-(4-methoxybenzenesulfonamido)-2-pyridyl]amino]benzoate] was run?
A: 1.3 µg/mL (≈ 3.04 µM)

Q: With `COc1ccc(S(=O)(=O)Nc2cccnc2Nc2ccc(Oc3ccccc3)cc2)cc1` [Example 40, 4-Methoxy-N-[2-[(4-phenoxyphenyl)amino]-3-pyridyl]benzenesulfonamide] as the compound, how does the IC50 read?
A: 2.1 µg/mL (≈ 4.69 µM)

Q: With `COc1ccc(S(=O)(=O)Nc2cccnc2Nc2ccc(Cl)cc2)cc1` [Example 42, N-[2-[(4-Chlorophenyl)amino]-3-pyridyl]-4-methoxybenzenesulfonamide] as the compound, how does the IC50 read?
A: 0.59 µg/mL (≈ 1.51 µM)

Q: How did the IC50 turn out when `COc1ccc(S(=O)(=O)Nc2cccnc2Nc2ccccc2O)cc1` [Example 43, N-[2-[(2-Hydroxyphenyl)amino]-3-pyridyl]-4-methoxybenzenesulfonamide] was run?
A: 0.26 µg/mL (≈ 0.7 µM)

Q: For `COc1ccc(S(=O)(=O)Nc2c(Nc3ccccc3)ncnc2OC)cc1` [Example 47, N-(4-Anilino-6-methoxy-5-pyrimidyl)-4-methoxybenzenesulfonamide], which IC50 is on record?
A: 2.6 µg/mL (≈ 6.73 µM)

Q: For `COc1ccc(S(=O)(=O)Nc2ccc(OC)nc2Nc2ccccc2)cc1` [Example 54, N-(2-Anilino-6-methoxy-3-pyridyl)-4-methoxybenzene sulfonamide], which IC50 is on record?
A: 0.54 µg/mL (≈ 1.4 µM)

Q: `COc1ccc(S(=O)(=O)Nc2ccccc2Nc2ncccn2)cc1` [Example 57, 4-Methoxy-N-[2-[(2-pyrimidyl)amino]phenyl]benzenesulfonamide] was tested. Which IC50 did it give?
A: 0.17 µg/mL (≈ 0.477 µM)

Q: With `COc1ccc(S(=O)(=O)Nc2ccccc2Nc2ccccc2)cc1` [Example 58, N-(2-Anilinophenyl)-4-methoxybenzenesulfonamide] as the compound, how does the IC50 read?
A: 1.2 µg/mL (≈ 3.39 µM)

Q: For `COc1ccc(S(=O)(=O)Nc2cccnc2Nc2ccc(OC(=O)c3ccccc3)cc2)cc1` [Example 59, N-[2-[(4-Benzoyloxyphenyl)amino]-3-pyridyl]-4-methoxybenzenesulfonamide], which IC50 is on record?
A: 0.18 µg/mL (≈ 0.379 µM)

Q: Which IC50 does the source give for `COc1ccc(S(=O)(=O)Nc2cccnc2Nc2ccc(OC(=O)CN)cc2)cc1.Cl.Cl` [Example 61, N-[2-[[4-(Aminoacetyloxy)phenyl]amino]-3-pyridyl]-4-methoxybenzenesulfonamide dihydrochloride] here?
A: 0.83 µg/mL

Q: For `COc1ccc(Nc2ncccc2N(C)S(=O)(=O)c2ccc(OC)cc2)cc1` [Example 62, 4-Methoxy-N-[2-[(4-methoxyphenyl)amino]-3-pyridyl]-N-methylbenzenesulfonamide], which IC50 is on record?
A: 0.53 µg/mL (≈ 1.33 µM)

Q: With `COc1ccc(S(=O)(=O)Nc2cccnc2Nc2ccc(OC(=O)c3ccccc3N)cc2)cc1` [Example 63, N-[2-[[4-(2-Aminobenzoyloxy)phenyl]amino]-3-pyridyl]-4-methoxybenzenesulfonamide] as the compound, how does the IC50 read?
A: 0.2 µg/mL (≈ 0.408 µM)

Q: Which IC50 does the source give for `COc1ccc(S(=O)(=O)Nc2cccnc2Nc2ccc(OP(=O)(O)O)cc2)cc1` [Example 64, 4-[[3-(4-Methoxybenzenesulfonamido)-2-pyridyl]amino]phenyl dihydrogenphosphate] here?
A: 0.55 µg/mL (≈ 1.22 µM)

Q: For `COc1ccc(S(=O)(=O)Nc2cccnc2Nc2cccc(OP(=O)(O)O)c2)cc1` [Example 65, 3-[[3-(4-Methoxybenzenesulfonamido)-2-pyridyl]amino]phenyl dihydrogenphosphate], which IC50 is on record?
A: 0.2 µg/mL (≈ 0.443 µM)

Q: `COc1ccc(S(=O)(=O)Nc2ccccc2Nc2ccc(O)cc2)cc1` [Example 67, N-[2-[(4-Hydroxyphenyl)amino]phenyl]-4-methoxybenzenesulfonamide] was tested. Which IC50 did it give?
A: 1.4 µg/mL (≈ 3.78 µM)

Q: Which IC50 does the source give for `COc1ccc(S(=O)(=O)Nc2cccnc2Nc2ccc(OC(=O)C(C)(C)C)cc2)cc1` [Example 68, 4-Methoxy-N-[2-[(4-pivaloyloxyphenyl)amino]-3-pyridyl]benzenesulfonamide] here?
A: 0.17 µg/mL (≈ 0.373 µM)

Q: With `COc1ccc(S(=O)(=O)Nc2ccccc2NC(=O)c2cnccc2C)cc1` [Example 71, N-[2-(4-Methoxybenzenesulfonamido)phenyl]-4-methylnicotinamide] as the compound, how does the IC50 read?
A: 0.11 µg/mL (≈ 0.277 µM)

Q: How did the IC50 turn out when `COc1ccc(S(=O)(=O)Nc2ccccc2NC(=O)c2ccncc2C)cc1` [Example 72, N-[2-(4-Methoxybenzenesulfonamido)phenyl]-3-methylisonicotinamide] was run?
A: 0.012 µg/mL (≈ 0.0302 µM)

Q: How did the IC50 turn out when `COc1ccc(S(=O)(=O)Nc2ccccc2Nc2ccccn2)cc1` [Example 76, 4-Methoxy-N-[2-[(2-pyridyl)amino]phenyl]benzenesulfonamide] was run?
A: 0.13 µg/mL (≈ 0.366 µM)

same assay, conditions: KB, 72 h

Q: How did the IC50 turn out when `COc1ccc(S(=O)(=O)Nc2cccnc2Nc2ccc(OC(=O)N(C)C)cc2)cc1` [Example 52, N-[2-[(4-Dimethylcarbamoyloxyphenyl)amino]-3-pyridyl]-4-methoxybenzenesulfonamide] was run?
A: 0.54 µg/mL (≈ 1.22 µM)
